For one experiment, the target named is T1, HLA-A2 (Homo sapiens, UniProt P04439, D140Y/D185E/D98H/E176V/E277Q/G131W/G231S/I119V/I121R/I166T/I218V/L300P/L318F/N151K/N90K/P208A/P217A/Q86G/Q94H/R138H/R169H/T345S).
T1 construct: The HLA-A2 stabilization assay was performed using T2 cells; endogenous in cells; host or cells: T2 cells (LCLxT lymphoblastoid hybrid cell line 0.1743CEM.T2)
In words: HLA-A2 stabilization assay using T2 cells. It is filed as binding.

Another experiment relates to CD8+ T cells. The experiment in a line: Enrichment of epitope-specific CD8 T cells from healthy donors, epitope-specific IFNg production (ELISA). As to conditions: positive co-cultures / co-cultures tested. The experiment is classed as cell-based, human. The procedure: Enrichment of epitope-specific CD8 T cells was performed according to the protocol described by Butler et al., Clin Cancer Res.;13(6):1857-1867 (2007), doi:10.1158/1078-0432, but included the following amendments. CD8+ T lymphocytes were collected from PBMCs by magnetic-activated cell sorting (MACS) according to the CD8 isolation kit (Miltenyi Biotec). CD8+ T cells with >95% purity were subsequently cultured in T cell medium supplemented with IL-2 (36 IU/mL; but no gentamycin) for 1 day, after which expansion cycles started. K562ABC cells (kindly provided by prof. Bruce Levine, University of Pennsylvania, PA) were loaded with 10 μg/ml ROPN1 and/or ROPN1B peptide and incubated for 5 h at RT in serum-free medium, after which cells were washed and fixed with 0,1% paraformaldehyde. After washing, K562ABC cells were suspended at 0.1×10^6/mL and co-cultured with T cells in a 1:20 ratio. IL-2 (36 IU/mL) and IL-15 ([…]) were added at days 1 and 3 days after start of co-culture, and after 6 days, T cells were counted, suspended at 2×10^6/mL and rested for 1 day, after which the next cycle commenced (this schedule continued up to 4 or 5 cycles). Following 4 and 5 cycles, T cells were stained with pMHC multimers (HLA*0201/MLN, Immudex, Copenhagen, Denmark). pMHC-PE were pre-incubated at RT for 10 min followed by incubation with 7AAD, anti-CD3-FITC and anti-CD8-APC for 20 min. Cells were fixed with 1% paraformaldehyde and TCR expression was measured with flow cytometry and analyzed using FlowJoX software. FIG. 4A schematically depicts the procedure to enrich epitope-specific T cells, and obtainthe corresponding TCR genes.
Enriched T cells were tested for ROPN1 and/or ROPN1B epitope-specific IFNY production. To this end, T2 cells (4×10^6/mL) were loaded with peptide (20 ng/mL) for 30 min. T cells (2×10^5) were cultured in a 1:1 ratio with T2 cells in a round bottom 96-wells plate, and the next day supernatant was collected and IFN-γ production was measured with an Enzyme-linked immunosorbent assay (ELISA, Invitrogen) according to manufacturer's protocol (FIG. 4B). T2 cells without peptide were included as a negative control; and staphylococcal enterotoxin B (0.1 μg, Sigma) was used as a positive control.
Enrichment of epitope-specific T cells was performed by co-culturing naïve T cells with CD11c-positive cells that were loaded with peptide. PBMCs were passed through a cell strainer (70 μm) and used for the isolation of naïve T cells and CD11c cells. To isolate CD11c-positive cells (typically dendritic cells, DC), PBMCs were stained for 10 mM at 4° C. with Fc block (10 μL/10^7 PBMCs, BD Pharmingen, Vianen, the Netherlands), after which cells were stained with CD11c-PE antibody (10 μL/10^7 PBMCs, BD Pharmingen) for 30 mM at 4° C., washed, and incubated with PE beads (10 μL/10^7 PBMCs, Miltenyi Biotech, Bergisch Gladbach, Germany) for another […] at 4° C. After washing, cells were dissolved in magnetic-activated cell sorting (MACS) buffer and passed through a MACS LS column (Miltenyi Biotec) to positively select CD11c cells. After selection, CD11c cells were irradiated with 30 Gy, and cultured overnight in a 24-wells plate (1×10^6/mL) in RPMI medium supplemented with 1% human serum (Sanquin), 1% antibiotics, […] L-glutamine, a DC maturation cocktail (a mixture of GM-CSF (10 ng/mL, ImmunoTools, Germany), IL-4 (10 ng/mL, ImmunoTools), LPS (100 ng/mL, Invitrogen, Goteborg, Sweden) and IFNY (10 ng/mL, Preprotech, London, United Kingdom)), as well as peptide (10 pg/mL). Naïve T cells were isolated with use of the Naïve T Cell isolation kit (Miltenyi Biotec) according to the manufacturer's protocol, and suspended in RPMI medium supplemented with 5% human serum (Sanquin), 1% antibiotics, […] L-glutamine and IL-7 (5 ng/mL, BD Pharmingen). The run-through of the naïve T cell selection was frozen down and used for re-stimulation of epitope-specific T cells. […]
A general note: In an ELISA, binding on a coated surface is turned into a signal by an enzyme label.

Setting [1] is: Table 4 (Examples 1 and 2), EC50 of peptide titration on T2 cells, read-out: Affinity for HLA.A2.01.
Setting [2] is: Table 2 (Example 1), EC50 of peptide titration on T2 cells, read-out: Affinity for HLA A2:01.
The mark [3] stands for this setting: Table 2 (Example 1), healthy donor T cells.

Read-outs that look alike come from different tables or passages of the source. Peptide text beside a SMILES is read from it.

Take `CC[C@H](C)[C@H](NC(=O)[C@H](Cc1ccc(O)cc1)NC(=O)[C@@H](NC(=O)[C@H](Cc1ccc(O)cc1)NC(=O)[C@H](CC(C)C)NC(=O)[C@@H](N)Cc1ccccc1)[C@@H](C)O)C(=O)N[C@@H](C)C(=O)N[C@@H](CCC(=O)O)C(=O)N[C@H](C(=O)O)C(C)C` (H-FLYTYIAEV-OH; N-terminus and C-terminus assumed): the EC50 at HLA-A2 (setting [1]) is 21.1 µM. In addition, the “T cell responses observed (IFNg) against epitope” value (from here on “T cell responses observed (IFNg)”) with CD8+ T cells (Table 4) is recorded as 2/2 co-cultures.
Take `CSCC[C@H](NC(=O)[C@H](CCC(N)=O)NC(=O)[C@H](C)N)C(=O)N[C@@H](Cc1c[nH]c2ccccc12)C(=O)N[C@@H](CCCCN)C(=O)N[C@H](C(=O)N[C@H](C(=O)N[C@@H](CC(N)=O)C(=O)N[C@@H](CC(C)C)C(=O)O)C(C)C)C(C)C` (H-AQMWKVVNL-OH; N-terminus and C-terminus assumed): the figures for the EC50 on HLA-A2 (setting [2]) and on HLA-A2 (setting [1]) were 11.4 µM and 10.5 µM, respectively. The “T cell responses observed (IFNg)” value in the experiment on CD8+ T cells (Table 4) was 2/2 co-cultures.
For `CC[C@H](C)[C@H](NC(=O)[C@H](Cc1ccc(O)cc1)NC(=O)[C@H](CC(N)=O)NC(=O)[C@H](CC(C)C)NC(=O)[C@@H](N)CCSC)C(=O)N[C@@H](CCC(=O)O)C(=O)N[C@@H](CCC(N)=O)C(=O)N[C@@H](CCC(=O)O)C(=O)N[C@H](C(=O)O)C(C)C` (H-MLNYIEQEV-OH; N-terminus and C-terminus assumed), the EC50 is 6.6 µM at HLA-A2 (Example 1, top-ranked epitopes, read-out: EC50 (HLA-A2 binding)); 6.56 µM at HLA-A2 (setting [2]); 4.82 µM on HLA-A2 (setting [1]). Also, the “T cell responses observed (IFNg)” value in the experiment on CD8+ T cells (setting [3]) and in the experiment on CD8+ T cells (Table 4) was 1/3 co-cultures in each case.
In the case of `CC[C@H](C)[C@H](NC(=O)[C@H](Cc1ccc(O)cc1)NC(=O)[C@@H](NC(=O)[C@H](Cc1ccc(O)cc1)NC(=O)[C@H](CC(C)C)NC(=O)[C@@H](N)Cc1ccccc1)[C@@H](C)O)C(=O)N[C@@H](C)C(=O)N[C@@H](CCCCN)C(=O)N[C@H](C(=O)O)C(C)C` (H-FLYTYIAKV-OH; N-terminus and C-terminus assumed), the EC50 on HLA-A2 (setting [2]) stood at 10.9 µM; on HLA-A2 (setting [1]) it was 8.11 µM. Also, the “T cell responses observed (IFNg)” value in the experiment on CD8+ T cells (setting [3]) and in the experiment on CD8+ T cells (Table 4) was 1/4 co-cultures in each case.
